Literature values, collected in patent US20230106284A1, “SYSTEM AND METHOD FOR GENERATING POTENTIAL DRUG COMPOSITIONS FOR DISEASE TARGET” (Innoplexus AG, priority 2020, published 2023).

Details: oral delivery

## O=C(O)c1ccc(-n2nc(-c3ccccc3O)nc2-c2ccccc2O)cc1 [DFX, deferasirox]
  bioavailability: about 70%
  volume of distribution: 14.37±2.69 litter
